According to patent US12030895B2, “Method for preparing heterocyclic derivative compound, composition containing same compound, and hydrate of same compound” (JW PHARMACEUTICAL CORPORATION, priority 2017, dated 2024):
Where two headings read alike, the source gives them in different places. Blank lines part the entries; values can stand above or below the compound they belong to.

Assays:
[1] = for form in which the salt was obtained: salt forms prepared by the same process; for Initial purity: before storage
gout patients [2] = assay: Serum uric acid level in gout patients per dose; assay type: in vivo, human; conditions: 14 days; for patients whose serum uric acid level fell below <5.0 mg/dL / percentage of patients whose serum uric acid level fell below <5.0 mg/dL: measured 15th day
Description: The compound was orally administered at doses of 0.25 mg (N=12), 0.5 mg (N=12), 1 mg (N=12) and 2 mg (N=12) based on the active ingredient (3,5-dibromo-4-hydroxyphenyl)(2,3-dihydro-4H-pyrido[4,3-b][1,4]oxazin-4-yl)-methanone (Formula I), and placebo (N=12), for 14 days. The efficacy and safety of the compound on the serum uric acid (UA) level was evaluated in comparison with the placebo.
Serum uric acid levels were measured on the 15th day after administration, and the percentages of patients whose serum uric acid level fell below <6.0 mg/dL and below <5.0 mg/dL were determined and shown in FIG. 13. […] From the above results, it could be understood that a dose less than 2 mg is not effective in the treatment of diseases such as hyperuricemia and gout.
In addition, for a total of 68 gout patients, (3,5-dibromo-4-hydroxyphenyl)(2,3-dihydro-4H-pyrido[4,3-b][1,4]oxazin-4-yl)-methanone hydrochloride 1.5 hydrate according to the present invention was administered. The compound was orally administered at doses of 3 mg (N=13), 5 mg (N=14), 7 mg (N=15) and 10 mg (N=15) based on the active ingredient (3,5-dibromo-4-hydroxyphenyl)(2,3-dihydro-4H-pyrido[4,3-b][1,4]oxazin-4-yl)-methanone (Formula I), and placebo (N=11), for 14 days. The efficacy and safety of the compound on the serum uric acid level was evaluated in comparison with the placebo.
Serum uric acid levels were measured on the 15th day after administration, and the percentages of patients whose serum uric acid level fell below <6.0 mg/dL and below <5.0 mg/dL were determined and shown in FIG. 14.

[3] = Solubility test in FeSSIF; assay type: physicochemical; conditions: At 240 minutes; 50 mL FeSSIF (pH 5.0), 37° C., paddle 50 rpm; 10 mg compound + 100 mg lactose
Description: The solubility test was carried out using 50 mL of FeSSIF (pH 5.0) as a medium and setting the paddle speed at 50 rpm under the operation condition at 37° C.

gout patients [4] = assay: Urinary creatinine levels in gout patients; assay type: in vivo, human; conditions: 10 mg, oral, 14 days
Description: Furthermore, urinary creatinine levels were also measured in the same patients. The number of cases in which creatinine is increased by more than 0.3 mg/dL or more than 1.5 times compared to baseline is shown in Table 4 below.

gout patients [5] = assay: Adverse drug reaction per dose in gout patients; assay type: in vivo, human; conditions: oral, 14 days
Description: The compound was orally administered at doses 3 mg (N=14), 5 mg (N=15), 7 mg (N=17) and 10 mg (N=17) based on the active ingredient (3,5-dibromo-4-hydroxyphenyl)(2,3-dihydro-4H-pyrido[4,3-b][1,4]oxazin-4-yl)-methanone (Formula I), and placebo (N=13), for 14 days, and the adverse drug reaction was investigated.

[6] = Physical stability to processing factors (grinding, granulating, tableting); assay type: physicochemical
Source text: In addition, the physical stability to processing factors in the preparation of the above 1.5 hydrate and the non-solvate were compared, and the results are shown in Table 2 below.

[7] = 30% v/w solvent, granulated about 2 min, dried at 50° C.

- form in which the salt was obtained [1]: gel form
Compound: O=P(O)(O)O.c1cc2c(cn1)NCCO2

- form in which the salt was obtained [1]: unstable in a semi-solid form
Compound: Cl.c1cc2c(cn1)NCCO2

- purity, 1 week ([1]; 30° C., 65% RH): 97.72%
- purity, 2 weeks ([1]; 30° C., 65% RH): 97.96%
- purity, 4 weeks ([1]; 30° C., 65% RH): 98.18%
- purity, 1 week ([1]; 40° C., 75% RH): 97.74%
- purity, 2 weeks ([1]; 40° C., 75% RH): 97.91%
- purity, 4 weeks ([1]; 40° C., 75% RH): 98.10%
- Initial purity [1]: 99.36%
- Note (purity over the stability test) ([1]; both conditions, up to 4 weeks): >97.5%
Compound: c1cc2c(cn1)NCCO2 [Free base]

- purity, 1 week ([1]; 30° C., 65% RH): 99.05%
- purity, 2 weeks ([1]; 30° C., 65% RH): 99.85%
- purity, 4 weeks ([1]; 30° C., 65% RH): melted
- purity, 1 week ([1]; 40° C., 75% RH): melted
- purity, 2 weeks ([1]; 40° C., 75% RH): melted
- purity, 4 weeks ([1]; 40° C., 75% RH): melted
- Initial purity [1]: 98.88%
- Note (stability verdict) ([1]; both conditions, up to 4 weeks): unstable
- form in which the salt was obtained [1]: solid form
- stability test outcome in words ([1]; stability test for 4 weeks): the solid melted again to a liquid
Compound: O=S(=O)(O)O.c1cc2c(cn1)NCCO2 [Sulfate]

Compound: O=C(c1cc(Br)c(O)c(Br)c1)N1CCOc2ccncc21 [compound of Formula I, (3,5-dibromo-4-hydroxyphenyl)(2,3-dihydro-4H-pyrido[4,3-b][1,4]oxazin-4-yl)-methanone]
- patients whose serum uric acid level fell below <5.0 mg/dL (gout patients [2]; 0.25 mg oral): no patient
- patients whose serum uric acid level fell below <5.0 mg/dL (gout patients [2]; 0.5 mg oral): no patient
- patients whose serum uric acid level fell below <5.0 mg/dL (gout patients [2]; 1 mg oral): no patient
- percentage of patients whose serum uric acid level fell below <5.0 mg/dL (gout patients [2]; 2 mg oral): about 8%
- percentage of patients whose serum uric acid level fell below <5.0 mg/dL (gout patients [2]; 3 mg oral): approximately 23%
- percentage of patients whose serum uric acid level fell below <5.0 mg/dL (gout patients [2]; 5 mg oral): ~64%
- percentage of patients whose serum uric acid level fell below <5.0 mg/dL (gout patients [2]; 7 mg oral): ~80%
- percentage of patients whose serum uric acid level fell below <5.0 mg/dL (gout patients [2]; 10 mg oral): ~73%

- solubility [3]: about 125 μg/mL
- Number of cases in which creatinine is increased by more than 0.3 mg/dL or more than 1.5 times compared to baseline (gout patients [4]): 3
- Crystallinity change after Tableting ([6]; 2 tons of pressure for 5 sec, 7 mm punches, powder X-ray diffractometer): Δ5% (94→89%)
- Solid form after Granulating with 1:1 of water and ethanol [6, 7]: Unchanged
- Solid form after Granulating with water [6, 7]: Unchanged
- solid forms in granulating ([6]; granulating): no change
- Crystallinity change after Grinding ([6]; ground about 2 min using a mortar, powder X-ray diffractometer): Δ3% (94→91%)
Compound: Cl.Cl.O.O.O.O=C(c1cc(Br)c(O)c(Br)c1)N1CCOc2ccncc21.O=C(c1cc(Br)c(O)c(Br)c1)N1CCOc2ccncc21 [hydrochloride 1.5 hydrate, (3,5-dibromo-4-hydroxyphenyl)(2,3-dihydro-4H-pyrido[4,3-b][1,4]oxazin-4-yl)-methanone hydrochloride 1.5 hydrate]
- arthralgia (adverse drug reaction) (gout patients [5]; 3 mg (N = 14)): 0
- joint swelling (adverse drug reaction) (gout patients [5]; 3 mg (N = 14)): 0
- incidence of adverse events such as arthralgia and joint swelling (gout patients [5]; 3 mg, 5 mg, 7 mg and 10 mg): no or very low incidence
- arthralgia (adverse drug reaction) (gout patients [5]; 5 mg (N = 15)): 0
- joint swelling (adverse drug reaction) (gout patients [5]; 5 mg (N = 15)): 0
- arthralgia (adverse drug reaction) (gout patients [5]; 7 mg (N = 17)): 0
- joint swelling (adverse drug reaction) (gout patients [5]; 7 mg (N = 17)): 0
- arthralgia (adverse drug reaction), cases (gout patients [5]; 10 mg (N = 17)): [3 cases]
- arthralgia (adverse drug reaction), persons (gout patients [5]; 10 mg (N = 17)): 2 persons
- arthralgia (adverse drug reaction), share of persons (gout patients [5]; 10 mg (N = 17)): 11.76%
- joint swelling (adverse drug reaction), cases (gout patients [5]; 10 mg (N = 17)): [1 case]
- joint swelling (adverse drug reaction), persons (gout patients [5]; 10 mg (N = 17)): 1 person
- joint swelling (adverse drug reaction), share of persons (gout patients [5]; 10 mg (N = 17)): 5.88%
- patients whose serum uric acid level fell below <5.0 mg/dL (gout patients [2]; 0.25 mg oral): no patient
- patients whose serum uric acid level fell below <5.0 mg/dL (gout patients [2]; 0.5 mg oral): no patient
- patients whose serum uric acid level fell below <5.0 mg/dL (gout patients [2]; 1 mg oral): no patient
- percentage of patients whose serum uric acid level fell below <5.0 mg/dL (gout patients [2]; 2 mg oral): about 8%
- percentage of patients whose serum uric acid level fell below <5.0 mg/dL (gout patients [2]; 3 mg oral): approximately 23%
- Patients whose serum uric acid level fell below <6.0 mg/dL (gout patients [2]; 3 mg, 5 mg, 7 mg and 10 mg, oral): appeared in all experimental doses
- percentage of patients whose serum uric acid level fell below <5.0 mg/dL (gout patients [2]; 5 mg oral): ~64%
- percentage of patients whose serum uric acid level fell below <5.0 mg/dL (gout patients [2]; 7 mg oral): ~80%
- percentage of patients whose serum uric acid level fell below <5.0 mg/dL (gout patients [2]; 10 mg oral): ~73%
